The record followed here is patent publication US10301260B2, “Pyrrolidine GPR40 modulators” (BRISTOL-MYERS SQUIBB COMPANY, priority 2014, dated 2019).

Counter-ions that a name gives are not always drawn.

In the assay the target is T1, hGPR40 (Homo sapiens, UniProt O14842).
T1 construct: 3xFLAG; expressed in transfected cells
T1 sequence (O14842 whole entry): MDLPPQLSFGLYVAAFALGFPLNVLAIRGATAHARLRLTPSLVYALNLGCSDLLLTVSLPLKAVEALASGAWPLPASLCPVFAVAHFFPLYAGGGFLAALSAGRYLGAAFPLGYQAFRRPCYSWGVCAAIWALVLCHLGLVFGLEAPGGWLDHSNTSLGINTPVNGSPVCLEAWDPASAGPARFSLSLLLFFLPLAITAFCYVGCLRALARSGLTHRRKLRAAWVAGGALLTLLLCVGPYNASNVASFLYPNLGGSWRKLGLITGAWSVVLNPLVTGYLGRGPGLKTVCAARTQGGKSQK
Put plainly: FDSS-based intracellular calcium assay (Human GRP40 In Vitro assay). As to conditions: cells expressing GPR40, intracellular Ca2+ response. Type of assay: cell-based. On the procedure: FDSS-Based Intracellular Calcium Assay
Cell lines expressing GPR40 are generated using the pDEST-3xFLAG gene expression system and are cultured in culture medium comprising the following components: F12 (Gibco #11765), 10% lipid deprived fetal bovine serum, 250 μg/ml zeocin and 500 μg/ml G418. To conduct the fluorescent imaging plate reader (FLIPR)-based calcium flux assay to measure intracellular Ca^2+ response, cells expressing GPR40 are plated on 384 well plates (BD Biocoat #356697) at a density of 20,000 cells/20 μL medium per well in phenol red and serum-free DMEM (Gibco #21063-029) and incubated overnight. Using BD kit #s 80500-310 or -301, the cells are incubated with 20 μL per well of Hank's buffered salt solution with 1.7 mM probenecid and Fluo-3 at 37° C. for 30 min. Compounds are dissolved in DMSO and diluted to desired concentrations with assay buffer and added to the cells as 3× solution (20 μL per well). Run fluorescence/luminescence reader FDSS (Hamamatsu) to read intracellular Ca^2+ response.
The exemplified Examples disclosed below were tested in the Human GRP40 In Vitro assay described above and found having hGRP40 modulating activity.
(A change in cytosolic calcium serves as a functional read-out for many receptors and channels.)
As for `COc1ccc(F)c(-c2ccc(Cc3ccc(N4CC(c5cc(C)no5)CC4CC(=O)O)cc3)c(C)c2)c1` (single isomer, unassigned) [Example 9, Isomer 1, 2-(1-(4-((2′-Fluoro-5′-methoxy-3-methyl-[1,1′-biphenyl]-4-yl)methyl)phenyl)-4-(3-methylisoxazol-5-yl)pyrrolidin-2-yl)acetic Acid, HCl], the EC50 (as a rule, the concentration giving half of the maximal effect) is 150 nM.

In the case of `COc1ccc(F)c(-c2ccc(Cc3ccc(N4CC(c5cc(C)no5)CC4CC(=O)O)cc3)c(C)c2)c1` (single isomer, unassigned) [Example 9, Isomer 2, 2-(1-(4-((2′-Fluoro-5′-methoxy-3-methyl-[1,1′-biphenyl]-4-yl)methyl)phenyl)-4-(3-methylisoxazol-5-yl)pyrrolidin-2-yl)acetic Acid, HCl], the EC50 came to 2200 nM.

For `COc1ccc(F)c(-c2ccc(Cc3ccc(N4CC(c5cc(C)no5)CC4CC(=O)O)cc3)c(C)c2)c1` (single isomer, unassigned) [Example 9, Isomer 3, 2-(1-(4-((2′-Fluoro-5′-methoxy-3-methyl-[1,1′-biphenyl]-4-yl)methyl)phenyl)-4-(3-methylisoxazol-5-yl)pyrrolidin-2-yl)acetic Acid, HCl], the EC50 amounted to 1400 nM.

As to `COc1ccc(F)c(-c2ccc(Cc3ccc(N4CC(c5cc(C)no5)CC4CC(=O)O)cc3)c(C)c2)c1` (single isomer, unassigned) [Example 9, Isomer 4, 2-(1-(4-((2′-Fluoro-5′-methoxy-3-methyl-[1,1′-biphenyl]-4-yl)methyl)phenyl)-4-(3-methylisoxazol-5-yl)pyrrolidin-2-yl)acetic Acid, HCl], the EC50 was determined as 3500 nM.

With `COc1ccc(F)c(-c2ccc(Cc3ccc(N4CC(c5ccon5)CC4CC(=O)O)cc3)c(C)c2)c1` (single isomer, unassigned) [Example 11, Isomer 1, 2-(1-(4-((2′-Fluoro-5′-methoxy-3-methyl-[1,1′-biphenyl]-4-yl)methyl)phenyl)-4-(isoxazol-3-yl)pyrrolidin-2-yl)acetic Acid, HCl], the EC50 was found to be 8100 nM.

In the case of `COc1ccc(F)c(-c2ccc(Cc3ccc(N4CC(c5ccon5)CC4CC(=O)O)cc3)c(C)c2)c1` (single isomer, unassigned) [Example 11, Isomer 2, 2-(1-(4-((2′-Fluoro-5′-methoxy-3-methyl-[1,1′-biphenyl]-4-yl)methyl)phenyl)-4-(isoxazol-3-yl)pyrrolidin-2-yl)acetic Acid, HCl], the 50% effective concentration (EC50) amounted to 550 nM.

For `COc1ccc(F)c(-c2ccc(Cc3ccc(N4CC(c5cccc(Cl)c5)C[C@@H]4CC(=O)O)cc3)c(C)c2)c1` (single isomer, unassigned) [Example 12, Isomer 1, HCl], the EC50 stood at 160 nM.

Regarding `COc1ccc(F)c(-c2ccc(Cc3ccc(N4CC(c5cccc(Cl)c5)C[C@@H]4CC(=O)O)cc3)c(C)c2)c1` (single isomer, unassigned) [Example 12, Isomer 2, HCl], the EC50 turned out to be 10 nM.

As to `COc1ccc(F)c(-c2ccc(Cc3ccc(N4C[C@@H](N5CCCCC5)C[C@@H]4CC(=O)O)cc3)c(C)c2)c1` (single isomer, unassigned) [Example 13, Isomer 1], the EC50 was determined as 6700 nM.

Regarding `COc1ccc(F)c(-c2ccc(Cc3ccc(N4C[C@H](N5CCCCC5)C[C@@H]4CC(=O)O)cc3)c(C)c2)c1` (single isomer, unassigned) [Example 13, Isomer 2], the EC50 is 2800 nM.

On to `COc1ccc(F)c(-c2ccc(Cc3ccc(N4C[C@H](c5ccccc5OC)C[C@@H]4CC(=O)O)cc3)c(C)c2)c1` (single isomer, unassigned) [Example 15, Isomer 1, HCl], for which the EC50 was 39 nM.

For the compound `COc1ccc(F)c(-c2ccc(Cc3ccc(N4C[C@@H](c5ccccc5OC)C[C@@H]4CC(=O)O)cc3)c(C)c2)c1` (single isomer, unassigned) [Example 15, Isomer 2, HCl], the EC50 turned out to be 61 nM.

For the compound `COc1ccc(F)c(-c2ccc(Cc3ccc(N4C[C@H](c5ccccc5)C[C@@H]4CC(=O)O)cc3)c(C)c2)c1` [Example 1, 2-((2R,4S)-1-(4-((2′-Fluoro-5′-methoxy-3-methylbiphenyl-4-yl)methyl)phenyl)-4-phenylpyrrolidin-2-yl)acetic Acid, HCl], the EC50 was determined as 15 nM.

In the case of `COc1ccc(F)c(-c2ccc(Cc3ccc(N4CC(C#N)CC4CC(=O)O)cc3)c(C)c2)c1` (centres unmarked) [Example 2, 2-(4-Cyano-1-(4-((2′-fluoro-5′-methoxy-3-methylbiphenyl-4-yl)methyl)phenyl)pyrrolidin-2-yl)acetic Acid, TFA], the EC50 is 270 nM.

Regarding `COc1ccc(F)c(-c2ccc(Cc3ccc(N4C[C@H](C5CCCCC5)C[C@@H]4CC(=O)O)cc3)c(C)c2)c1` [Example 3, 2-((2R,4S)-4-Cyclohexyl-1-(4-((2′-fluoro-5′-methoxy-3-methyl-[1,1′-biphenyl]-4-yl)methyl)phenyl)pyrrolidin-2-yl)acetic Acid, HCl], the EC50 was found to be 13 nM.

Take `COc1ccc(F)c(-c2ccc(Cc3ccc(N4C[C@H](c5ccc(-c6ccccc6)cc5)C[C@@H]4CC(=O)O)cc3)c(C)c2)c1` [Example 4, 2-((2R,4S)-4-([1,1′-Biphenyl]-4-yl)-1-(4-((2′-fluoro-5′-methoxy-3-methyl-[1,1′-biphenyl]-4-yl)methyl)phenyl)pyrrolidin-2-yl)acetic Acid, HCl]: the EC50 came out at 210 nM.

As for `COc1ccc(F)c(-c2ccc(Cc3ccc(N4C[C@@H](c5ccccc5)C[C@@H]4CC(=O)O)cc3)c(C)c2)c1` [Example 5, 2-((2R,4R)-1-(4-((2′-Fluoro-5′-methoxy-3-methyl-[1,1′-biphenyl]-4-yl)methyl)phenyl)-4-phenylpyrrolidin-2-yl)acetic Acid], the EC50 turned out to be 130 nM.

For the compound `COc1ccc(F)c(-c2ccc(Cc3ccc(N4C[C@](OC)(c5ccc(-c6ccccc6)cc5)C[C@@H]4CC(=O)O)cc3)c(C)c2)c1` [Example 6, 2-((2R,4R)-4-([1,1′-Biphenyl]-4-yl)-1-(4-((2′-fluoro-5′-methoxy-3-methyl-[1,1′-biphenyl]-4-yl)methyl)phenyl)-4-methoxypyrrolidin-2-yl)acetic Acid, HCl], the EC50 was 77 nM.

For `COCCO[C@@H]1C[C@H](CC(=O)O)N(c2ccc(Cc3ccc(-c4cc(OC)ccc4F)cc3C)cc2)C1` [Example 7, 2-((2R,4R)-1-(4-((2′-Fluoro-5′-methoxy-3-methyl-[1,1′-biphenyl]-4-yl)methyl)phenyl)-4-(2-methoxyethoxy)pyrrolidin-2-yl)acetic Acid, HCl], the EC50 came to 240 nM.

As to `COc1ccc(F)c(-c2ccc(Cc3ccc(N4C[C@H](c5cccnc5)C[C@@H]4CC(=O)O)cc3)c(C)c2)c1` [Example 8, 2-((2R,4S)-1-(4-((2′-Fluoro-5′-methoxy-3-methyl-[1,1′-biphenyl]-4-yl)methyl)phenyl)-4-(pyridin-3-yl)pyrrolidin-2-yl)acetic Acid, HCl], the EC50 stood at 94 nM.

Regarding `COc1ccc(F)c(-c2ccc(Cc3ccc(N4C[C@@H](c5ccccn5)C[C@@H]4CC(=O)O)cc3)c(C)c2)c1` [Example 10, 2-((2R,4S)-1-(4-((2′-Fluoro-5′-methoxy-3-methyl-[1,1′-biphenyl]-4-yl)methyl)phenyl)-4-(pyridin-2-yl)pyrrolidin-2-yl)acetic Acid, HCl], the EC50 amounted to 1400 nM.

Consider `COc1ccc(F)c(-c2ccc(COc3ccc(N4C[C@H](c5ccccc5)C[C@@H]4CC(=O)O)cc3)c(C)c2)c1` [Example 16, 2-((2R,4S)-1-(4-((2′-Fluoro-5′-methoxy-3-methyl-[1,1′-biphenyl]-4-yl)methoxy)phenyl)-4-phenylpyrrolidin-2-yl)acetic Acid, HCl], for which the EC50 amounted to 1000 nM.

For the compound `COCCCO[C@H]1CN(c2ccc(Cc3ccc(-c4cc(OC)ccc4F)cc3C)cc2)[C@@H](CC(=O)O)[C@@H]1C` [Example 17, 2-((2S,3S,4R)-1-(4-((2′-Fluoro-5′-methoxy-3-methyl-[1,1′-biphenyl]-4-yl)methyl)phenyl)-4-(3-methoxypropoxy)-3-methylpyrrolidin-2-yl)acetic Acid, HCl], the EC50 came to 39 nM.
